Test results reported in ChEMBL document CHEMBL1151464 (2008).

Experiments:
Assay type in all cases: functional
[1] = tested on: Acinetobacter baumannii; test: Antibacterial activity against Acinetobacter baumannii isolate 928 after 24 hrs by CLSI microdilution method
[2] = tested on: Acinetobacter baumannii; test: Antibacterial activity against Acinetobacter baumannii isolate 930 after 24 hrs by CLSI microdilution method
[3] = tested on: Acinetobacter baumannii; test: Antibacterial activity against Acinetobacter baumannii isolate 932 expressing OXA-24 and OXA-51 beta-lactamase after 24 hrs by CLSI microdilution method
[4] = tested on: Acinetobacter baumannii; test: Antibacterial activity against Acinetobacter baumannii isolate 934 after 24 hrs by CLSI microdilution method
[5] = tested on: Pseudomonas aeruginosa; test: Antibacterial activity against Pseudomonas aeruginosa isolate 319 after 24 hrs by CLSI microdilution method
[6] = tested on: Pseudomonas aeruginosa; test: Antibacterial activity against Pseudomonas aeruginosa isolate 320 after 24 hrs by CLSI microdilution method
[7] = tested on: Pseudomonas aeruginosa; test: Antibacterial activity against Pseudomonas aeruginosa isolate 322 after 24 hrs by CLSI microdilution method
[8] = tested on: Pseudomonas aeruginosa; test: Antibacterial activity against Pseudomonas aeruginosa isolate 323 after 24 hrs by CLSI microdilution method
[9] = tested on: Pseudomonas aeruginosa; test: Antibacterial activity against Pseudomonas aeruginosa isolate 324 after 24 hrs by CLSI microdilution method
[10] = tested on: Pseudomonas aeruginosa; test: Antibacterial activity against Pseudomonas aeruginosa isolate 326 after 24 hrs by CLSI microdilution method
[11] = tested on: Pseudomonas aeruginosa; test: Antibacterial activity against Pseudomonas aeruginosa isolate 327 after 24 hrs by CLSI microdilution method
[12] = tested on: Pseudomonas aeruginosa; test: Antibacterial activity against Pseudomonas aeruginosa isolate 328 after 24 hrs by CLSI microdilution method
[13] = tested on: Pseudomonas aeruginosa; test: Antibacterial activity against Pseudomonas aeruginosa isolate 335 after 24 hrs by CLSI microdilution method
[14] = tested on: Pseudomonas aeruginosa; test: Antibacterial activity against Pseudomonas aeruginosa isolate 338 after 24 hrs by CLSI microdilution method
[15] = tested on: Pseudomonas aeruginosa; test: Antibacterial activity against Pseudomonas aeruginosa isolate 340 after 24 hrs by CLSI microdilution method
[16] = tested on: Pseudomonas aeruginosa; test: Antibacterial activity against Pseudomonas aeruginosa isolate 344 after 24 hrs by CLSI microdilution method
[17] = tested on: Pseudomonas aeruginosa; test: Antibacterial activity against Pseudomonas aeruginosa isolate 345 after 24 hrs by CLSI microdilution method
[18] = tested on: Pseudomonas aeruginosa; test: Antibacterial activity against Pseudomonas aeruginosa isolate 348 after 24 hrs by CLSI microdilution method
[19] = tested on: Pseudomonas aeruginosa; test: Antibacterial activity against Pseudomonas aeruginosa isolate 349 after 24 hrs by CLSI microdilution method
[20] = tested on: Pseudomonas aeruginosa; test: Antibacterial activity against Pseudomonas aeruginosa isolate 350 after 24 hrs by CLSI microdilution method
[21] = tested on: Pseudomonas aeruginosa; test: Antibacterial activity against Pseudomonas aeruginosa isolate 352 after 24 hrs by CLSI microdilution method
[22] = tested on: Pseudomonas aeruginosa; test: Antibacterial activity against Pseudomonas aeruginosa isolate 354 after 24 hrs by CLSI microdilution method
[23] = tested on: Pseudomonas aeruginosa; test: Antibacterial activity against Pseudomonas aeruginosa isolate 356 after 24 hrs by CLSI microdilution method
[24] = tested on: Pseudomonas aeruginosa; test: Antibacterial activity against Pseudomonas aeruginosa isolate 357 after 24 hrs by CLSI microdilution method
[25] = tested on: Pseudomonas aeruginosa; test: Antibacterial activity against Pseudomonas aeruginosa isolate 358 after 24 hrs by CLSI microdilution method
[26] = tested on: Pseudomonas aeruginosa; test: Antibacterial activity against Pseudomonas aeruginosa isolate 363 after 24 hrs by CLSI microdilution method
[27] = tested on: Pseudomonas aeruginosa; test: Antibacterial activity against Pseudomonas aeruginosa isolate 367 after 24 hrs by CLSI microdilution method
[28] = tested on: Pseudomonas aeruginosa; test: Antibacterial activity against Pseudomonas aeruginosa isolate 368 after 24 hrs by CLSI microdilution method
[29] = tested on: Pseudomonas aeruginosa; test: Antibacterial activity against Pseudomonas aeruginosa isolate 369 after 24 hrs by CLSI microdilution method
[30] = tested on: Pseudomonas aeruginosa; test: Antibacterial activity against Pseudomonas aeruginosa isolate 372 after 24 hrs by CLSI microdilution method
[31] = tested on: Pseudomonas aeruginosa; test: Antibacterial activity against Pseudomonas aeruginosa isolate 373 after 24 hrs by CLSI microdilution method
[32] = tested on: Pseudomonas aeruginosa; test: Antibacterial activity against Pseudomonas aeruginosa isolate 376 after 24 hrs by CLSI microdilution method
[33] = tested on: Pseudomonas aeruginosa; test: Antibacterial activity against Pseudomonas aeruginosa isolate 379 expressing VIM2 beta-lactamase after 24 hrs by CLSI microdilution method
[34] = tested on: Acinetobacter baumannii; test: Antibacterial activity against Acinetobacter baumannii isolate 883 after 24 hrs by CLSI microdilution method
[35] = tested on: Acinetobacter baumannii; test: Antibacterial activity against Acinetobacter baumannii isolate 885 after 24 hrs by CLSI microdilution method
[36] = tested on: Acinetobacter baumannii; test: Antibacterial activity against Acinetobacter baumannii isolate 886 after 24 hrs by CLSI microdilution method
[37] = tested on: Acinetobacter baumannii; test: Antibacterial activity against Acinetobacter baumannii isolate 888 after 24 hrs by CLSI microdilution method
[38] = tested on: Acinetobacter baumannii; test: Antibacterial activity against Acinetobacter baumannii isolate 889 after 24 hrs by CLSI microdilution method
[39] = tested on: Acinetobacter baumannii; test: Antibacterial activity against Acinetobacter baumannii isolate 890 after 24 hrs by CLSI microdilution method
[40] = tested on: Acinetobacter baumannii; test: Antibacterial activity against Acinetobacter baumannii isolate 894 after 24 hrs by CLSI microdilution method
[41] = tested on: Acinetobacter baumannii; test: Antibacterial activity against Acinetobacter baumannii isolate 895 after 24 hrs by CLSI microdilution method
[42] = tested on: Acinetobacter baumannii; test: Antibacterial activity against Acinetobacter baumannii isolate 896 after 24 hrs by CLSI microdilution method
[43] = tested on: Acinetobacter baumannii; test: Antibacterial activity against Acinetobacter baumannii isolate 897 after 24 hrs by CLSI microdilution method
[44] = tested on: Acinetobacter baumannii; test: Antibacterial activity against Acinetobacter baumannii isolate 898 after 24 hrs by CLSI microdilution method
[45] = tested on: Acinetobacter baumannii; test: Antibacterial activity against Acinetobacter baumannii isolate 899 after 24 hrs by CLSI microdilution method
[46] = tested on: Acinetobacter baumannii; test: Antibacterial activity against Acinetobacter baumannii isolate 900 after 24 hrs by CLSI microdilution method
[47] = tested on: Acinetobacter baumannii; test: Antibacterial activity against Acinetobacter baumannii isolate 903 after 24 hrs by CLSI microdilution method
[48] = tested on: Acinetobacter baumannii; test: Antibacterial activity against Acinetobacter baumannii isolate 908 after 24 hrs by CLSI microdilution method
[49] = tested on: Acinetobacter baumannii; test: Antibacterial activity against Acinetobacter baumannii isolate 910 after 24 hrs by CLSI microdilution method
[50] = tested on: Acinetobacter baumannii; test: Antibacterial activity against Acinetobacter baumannii isolate 911 after 24 hrs by CLSI microdilution method
[51] = tested on: Acinetobacter baumannii; test: Antibacterial activity against Acinetobacter baumannii isolate 912 after 24 hrs by CLSI microdilution method
[52] = tested on: Acinetobacter baumannii; test: Antibacterial activity against Acinetobacter baumannii isolate 913 after 24 hrs by CLSI microdilution method
[53] = tested on: Acinetobacter baumannii; test: Antibacterial activity against Acinetobacter baumannii isolate 916 after 24 hrs by CLSI microdilution method
[54] = tested on: Acinetobacter baumannii; test: Antibacterial activity against Acinetobacter baumannii isolate 918 after 24 hrs by CLSI microdilution method
[55] = tested on: Acinetobacter baumannii; test: Antibacterial activity against Acinetobacter baumannii isolate 919 after 24 hrs by CLSI microdilution method
[56] = tested on: Acinetobacter baumannii; test: Antibacterial activity against Acinetobacter baumannii isolate 922 after 24 hrs by CLSI microdilution method
[57] = tested on: Acinetobacter baumannii; test: Antibacterial activity against Acinetobacter baumannii isolate 923 after 24 hrs by CLSI microdilution method
[58] = tested on: Acinetobacter baumannii; test: Antibacterial activity against Acinetobacter baumannii isolate 924 after 24 hrs by CLSI microdilution method
[59] = tested on: Acinetobacter baumannii; test: Antibacterial activity against Acinetobacter baumannii isolate 925 after 24 hrs by CLSI microdilution method

COLISTIN
MIC [1]: 1 µg/mL
MIC [2]: 0.25 µg/mL
MIC [3]: 0.5 µg/mL
MIC [4]: 8 µg/mL
MIC [5]: 2 µg/mL
MIC [6]: 1 µg/mL
MIC [7]: 0.5 µg/mL
MIC [8]: 0.25 µg/mL
MIC [9]: 2 µg/mL
MIC [10]: 1 µg/mL
MIC [11]: 2 µg/mL
MIC [12]: 2 µg/mL
MIC [13]: 1 µg/mL
MIC [14]: 1 µg/mL
MIC [15]: 1 µg/mL
MIC [16]: 0.5 µg/mL
MIC [17]: 1 µg/mL
MIC [18]: 1 µg/mL
MIC [19]: 1 µg/mL
MIC [20]: 1 µg/mL
MIC [21]: 4 µg/mL
MIC [22]: 0.5 µg/mL
MIC [23]: 1 µg/mL
MIC [24]: 2 µg/mL
MIC [25]: 1 µg/mL
MIC [26]: 0.25 µg/mL
MIC [27]: 0.5 µg/mL
MIC [28]: 2 µg/mL
MIC [29]: 2 µg/mL
MIC [30]: 1 µg/mL
MIC [31]: 1 µg/mL
MIC [32]: 0.25 µg/mL
MIC [33]: 1 µg/mL
MIC [34]: 32 µg/mL
MIC [35]: 2 µg/mL
MIC [36]: 1 µg/mL
MIC [37]: 4 µg/mL
MIC [38]: 16 µg/mL
MIC [39]: 2 µg/mL
MIC [40]: 1 µg/mL
MIC [41]: 2 µg/mL
MIC [42]: 2 µg/mL
MIC [43]: 4 µg/mL
MIC [44]: 1 µg/mL
MIC [45]: 32 µg/mL
MIC [46]: 2 µg/mL
MIC [47]: 0.25 µg/mL
MIC [48]: 0.5 µg/mL
MIC [49]: 0.25 µg/mL
MIC [50]: 8 µg/mL
MIC [51]: 0.5 µg/mL
MIC [52]: 0.25 µg/mL
MIC [53]: 0.12 µg/mL
MIC [54]: 4 µg/mL
MIC [55]: 0.5 µg/mL
MIC [56]: 4 µg/mL
MIC [57]: 4 µg/mL
MIC [58]: 2 µg/mL
MIC [59]: 16 µg/mL
